In patent US12258360B2, “Compositions and methods for treatment of anticancer-drug resistant cancers” (THE GEORGE WASHINGTON UNIVERSITY, priority 2020, dated 2025):

Key:
IGROV1 CR xenograft = type: in vivo, mice
Experimental: To evaluate the potency of And-1 inhibitors in vivo, IGROV1 or MCF7 cells were subcutaneously implanted into nude mice to form ovarian or breast tumors, respectively. In brief, 5-6 week-old female BALB/c athymic nude mice (CByJ.Cg-Foxn1nu/J, weighting 20-25 grams) were inoculated subcutaneously by injecting the OC cells, cisplatin resistant OC cells or breast cancer cells suspended in 100 μl ice-cold Matrigel/PBS (1:1, V:V; 5×10^6/mouse) into the dorsal flank of each mouse. When the average tumor volume reached 100-150 mm^3, the mice were randomized into subsequent experiment groups. For tumors treated with CH3 only, CH3 was given at 0 mg/kg, 20 mg/kg and 40 mg/kg via intraperitoneal injection twice a week for three weeks. […] The relative tumor volumes were calculated using the formula: a×(b^2)/2, for which a and b represented the longest and shortest diameters, respectively. During the drug treatment, the tumor volume and body weight were measured. Tumor samples were collected 4 days after final administration of the drug.
To assess the efficacy of combination therapy with And-1 inhibitor and cisplatin in vivo, an IGROV1 CR xenograft was treated with vehicle, And-1 inhibitors, cisplatin or combination of cisplatin and And-1 inhibitor via intraperitoneal injection.

[1] = tested on: recruitment of CtIP to DSB sites in IGROV1 cells; test: immunofluorescence assay of CtIP co-localization with γH2AX after micro-irradiation; type: cell-based, human; conditions: 1 μM, 30 minutes post irradiation
Experimental: H2AX (H2A histone family member X) becomes phosphorylated on serine 139 (wherein the phosphorylated form is then called […]) as a reaction on DNA double-strand breaks (DSB). And-1 regulates DSB end resection by establishing a condition or acting as a platform for recruitment of the tumor suppressor protein CtIP—a CtBP (carboxy-terminal binding protein)-interacting protein, to the DSB sites. […] In brief, IGROV1 cells were cultured on coverslips coated with 0.01% of poly-L-lysine. After treatment, the cells were then washed once with PBS, then pre-extracted with 0.5% Triton X-100 extraction buffer (10 mM PIPES pH 7.0, 100 mM NaCl, 3 mM MgCl2 and 300 mM sucrose) on ice for 5 minutes. After washing with PBS, cells were fixed with 4% paraformaldehyde in PBS for 15 minutes. Cells were then washed and incubated for 10 minutes in blocking buffer (PBS containing 3% BSA and 0.02% Tween-20) and subsequently incubated for 1 hour with a primary antibody at room temperature. Cells were washed three times with PBS-T (PBS containing 0.02% Tween-20) and then incubated with a secondary antibody (e.g., rabbit Alexa Fluor-594 and mouse Alexa Fluor-488). After washing with PBS-T, cells were mounted with Fluoromount G containing DAPI (4′,6-diamidino-2-phenylindole—a fluorescent stain that binds strongly to adenine-thymine-rich regions in DNA). Slides were then imaged using a Nikon Eclipse 80i microscope. […]

And-1 [2] = biological target: T1, And-1 (Homo sapiens, UniProt O75717); test: immunoblot analysis of And-1 expression in IGROV1 cells; type: cell-based; set-up: endogenous in cells; host or cells: IGROV1 CR; conditions: immunoblot, read-out: IC50 for inhibition of And-1 expression
T1 sequence (O75717 1-1129): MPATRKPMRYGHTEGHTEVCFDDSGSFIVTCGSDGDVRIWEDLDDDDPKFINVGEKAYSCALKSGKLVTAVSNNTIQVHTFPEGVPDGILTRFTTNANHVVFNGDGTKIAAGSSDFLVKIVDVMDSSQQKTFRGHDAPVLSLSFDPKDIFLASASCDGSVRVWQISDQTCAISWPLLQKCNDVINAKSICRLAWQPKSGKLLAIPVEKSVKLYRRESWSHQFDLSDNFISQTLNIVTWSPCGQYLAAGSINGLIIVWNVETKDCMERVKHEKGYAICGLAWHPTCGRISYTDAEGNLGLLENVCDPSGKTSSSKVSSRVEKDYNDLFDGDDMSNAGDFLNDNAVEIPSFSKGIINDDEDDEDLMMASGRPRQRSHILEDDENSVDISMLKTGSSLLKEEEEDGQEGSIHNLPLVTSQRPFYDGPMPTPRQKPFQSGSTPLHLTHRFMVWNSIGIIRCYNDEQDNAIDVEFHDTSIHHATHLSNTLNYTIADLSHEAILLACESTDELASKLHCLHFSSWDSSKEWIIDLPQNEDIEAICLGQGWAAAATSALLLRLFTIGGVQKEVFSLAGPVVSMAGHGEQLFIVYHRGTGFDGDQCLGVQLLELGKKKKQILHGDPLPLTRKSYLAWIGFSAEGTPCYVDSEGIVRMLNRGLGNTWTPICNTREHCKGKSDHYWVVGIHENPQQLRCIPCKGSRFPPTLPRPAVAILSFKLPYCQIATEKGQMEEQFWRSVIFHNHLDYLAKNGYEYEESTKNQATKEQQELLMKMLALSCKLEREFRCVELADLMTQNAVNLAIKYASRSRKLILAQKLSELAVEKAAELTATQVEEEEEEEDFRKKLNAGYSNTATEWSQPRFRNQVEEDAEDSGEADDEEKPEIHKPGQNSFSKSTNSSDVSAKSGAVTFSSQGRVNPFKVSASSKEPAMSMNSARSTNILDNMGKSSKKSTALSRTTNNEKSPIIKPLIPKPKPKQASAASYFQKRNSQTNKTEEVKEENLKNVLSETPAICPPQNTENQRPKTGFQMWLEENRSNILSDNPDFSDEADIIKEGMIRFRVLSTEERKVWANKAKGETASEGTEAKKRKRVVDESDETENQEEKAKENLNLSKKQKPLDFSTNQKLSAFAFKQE
Experimental: The high IC50 of resveratrol compromises its potential clinical application; therefore, resveratrol was used as a lead compound to screen 12 analogs of resveratrol for potent compounds that can inhibit And-1 (FIG. 14). […] To perform immunoblot analyses, cells were first treated with increasing concentrations of the 12 analogs. After treatment, the cells were harvested and then lysed with RIPA buffer protease inhibitor and phosphatase inhibitor cocktail. Protein concentration was determined by the BCA protein assay. Equal amounts of whole cell lysates were separated on sodium dodecyl sulfate polyacrylamide gel electrophoresis (SDS-PAGE) and transferred onto nitrocellulose membranes. Membranes were then incubated in blocking solution (5% non-fat milk in 20 mM TRIS-HCl, 150 mM NaCl, 0.1% Tween-20) (TBST), followed by incubation with the indicated antibodies at 4° C. overnight. The membranes were then washed in TBST and incubated with HRP-conjugated secondary antibodies for 1 hour at room temperature (21° C.±2° C.). Antibody detection was performed with an enhanced chemiluminescence reaction.

IGROV1 cells = test: flow cytometry (FACS) of propidium-iodide stained IGROV1 cells; type: cell-based, human; conditions: 1 μM
AN3CA cells [3] = test: cell clonogenic assay in AN3CA cells; type: cell-based, human; conditions: 10 μM
Experimental: • 1. The experimental steps are as follows: • 1.1 AN3CA cell recovery and culture (MEM medium, 10% serum, 1% double antibody); • 1.2 Passages (1:2 ratio passage); • 1.3 When the cell state is good, laying 6-hole plates, 500/hole, and culturing overnight; • 1.4 Adding medicine: […], 2 mL/well; • 1.5 Adding medicine in a liquid changing mode every two days; • 1.6 Frequent observation. The culture was terminated when macroscopic colonies appeared in the culture dish. The supernatant was discarded, carefully rinsed 2 times with PBS and air dried. Cells were fixed with 5 mL of 4% paraformaldehyde for 30 minutes or with methanol for 10 minutes. And (3) removing the stationary liquid after air drying, adding a proper amount of GIMSA, dyeing for 10-30 minutes by using the dyeing liquid, then slowly washing away the dyeing liquid by using running water, and air drying. • 1.7 Plates were inverted and overlaid with a piece of transparent film with grid and clones were counted either directly with the naked eye or with a microscope (low power) for clones larger than 10 cells. And finally calculating the clone formation rate. • 1.8 Percent colony formation rate (number of clones/number of inoculated cells)×100%

And-1 [4] = biological target: T1, And-1; test: inhibition of And-1 in OV90 CR cells; type: cell-based; set-up: endogenous in cells; conditions: inhibition of And-1, OV90 CR cells
And-1 [5] = biological target: T1, And-1; test: inhibition of And-1 in IGROV1 CR cells; type: cell-based; set-up: endogenous in cells; host or cells: IGROV1 CR; conditions: inhibition of And-1, IGROV1 CR cells
AN3CA cells [6] = test: cell proliferation assay (MTS) in AN3CA cells; type: cell-based, human; conditions: 48 h; for inhibition of AN3CA cell proliferation (in words): 10 μM
Experimental: • 1. The experimental steps are as follows: • 1.1 AN3CA cell recovery and culture (MEM medium, 10% serum, 1% double antibody); • 1.2 Passages (passage at a ratio of 1:2); • 1.3 Place 96-well plate when the cell status is good, 1×10^4 Well, culture overnight; • culture medium with 10% defatted serum • 1.4 Adding medicine: diluting the final concentration of the drug with a culture medium to 10 μM, and treating for 48 h at 100 μL/well; • culture medium with 10% defatted serum • 1.5 Addition of 2 μL MTS/well, care taken to prevent bubble formation, 490 nm data after 1-4 h

SREBP target gene SCD-1 = test: RT-PCR detection of SCD-1 gene expression in AN3CA cells; type: cell-based, human; conditions: 10 μM; for activity of reducing SCD-1 gene expression (in words) / Relative mRNA expression of SCD-1: AN3CA cells; for Relative mRNA expression of SCD-1: 48 h, DMSO = 1
Experimental: • 1. Experimental reagent • 2. The experimental steps are as follows: • 2.1 AN3CA cell recovery and culture (10% serum 1% double antibody in MEM medium); • 2.2 passages (passage at a ratio of 1:2); • 2.3 Place 6 well plates when the cell status is good, 5×10^5Well, culture overnight; • 2.4 adding medicine: diluting the final concentration of the drug with a culture medium to 10 μM, 2 mL/well; • 2.5 adding medicine for 48 h, and then extracting RNA; • 2.5.1 removing the culture medium, adding 0.5 mL/hole Trizol to lyse the cells, repeatedly blowing and beating the cells by a pipette after 5 min, completely lysing the cells, transferring the cells into a 1.5 mL EP tube without RNase, and standing the tube for 5 min; • 2.5.2 adding 200 µl chloroform, shaking rapidly, mixing, standing for 10 min 12000 rpm/15 min; • 2.5.3 carefully taking out the supernatant, transferring the supernatant into an EP tube, adding isopropanol with the same volume, reversing, uniformly mixing, standing for 10 min, and centrifuging at 12000 rpm/10 min; • 2.5.4 removing the supernatant, adding 1 mL of 75% ethanol for washing, centrifuging at 8000 rpm/5 min once, carefully removing the supernatant, standing at room temperature for 10 min to volatilize the ethanol, and dissolving the precipitate with 40 μL of DEPC treated water when the precipitate becomes transparent; • 2.5.5 RNA concentration was measured and DEPC-treated water was diluted to 100 ng/μL • 2.6 reverse transcription: Kit Takara (PrimeScript RT reagent Kit (Perfect Real Time)

And-1 [7] = biological target: T1, And-1; test: cellular thermal shift assay; type: binding; set-up: endogenous in cells; host or cells: IGROV1 CR; conditions: cells incubated 8 hours, compared to DMSO
Experimental: To explore whether And-1 inhibitors directly bind to And-1, cellular thermal shift assays were performed in which a small molecule binds to a protein resulting in thermal stabilization of the protein. Briefly, cells were incubated with MG132 (10 μM), DHS, CH3, CH10 or DMSO for 8 hours. After washing with ice-cold PBS (suppled with Protease Inhibitor Cocktail), cells were aliquoted into PCR tubes (100 μL each) and then incubated at different temperatures (from 25° C. to 71° C.) for 4 minutes. After the cells were frozen and thawed twice using liquid nitrogen, proteins were isolated from the cells after centrifugation and incubated at 70° C. for 10 minutes for analysis by western blotting.

Row | Compound | And-1 expression in tumor samples (IHC) (IGROV1 CR xenograft; IGROV1 CR xenograft) | tumor growth, combination with cisplatin vs cisplatin alone (IGROV1 CR xenograft; IGROV1 CR xenograft, cisplatin 8 mg/kg, CH3 20 mg/kg, BZA 2 mg/kg intraperitoneally, three weeks) | systemic toxicity of combination with cisplatin (body weight, H&E staining) (IGROV1 CR xenograft; mouse, in vivo) | recruitment of CtIP to DSB sites induced by micro-irradiation [1] | IC50 (And-1 [2]) [µM] | percentage of cells in the S-phase (IGROV1 cells) | inhibition of clone formation rate (AN3CA cells [3]) | IC50 (And-1 [4]) [µM] | IC50 (And-1 [5]) [µM] | inhibition of AN3CA cell proliferation (in words) (AN3CA cells [6]) | inhibition at 10 µM (AN3CA cells [6]; Homo sapiens, AN3-CA, MTS) [%] | activity of reducing SCD-1 gene expression (in words) (SREBP target gene SCD-1) | Relative mRNA expression of SCD-1 (SREBP target gene SCD-1) | inhibitory effect on Srebp (SREBP target gene SCD-1; human endometrial cancer AN3CA cells) | thermal stabilization of And-1 protein at higher temperatures (And-1 [7])
1 | CC(=O)O.Cc1c(-c2ccc(O)cc2)n(Cc2ccc(OCCN3CCCCCC3)cc2)c2ccc(O)cc12 [BZA, reference compound] | suppressed expression of And-1 | excellent synergy in reducing tumor growth | no obvious systemic toxicity or side effect | significantly decreased | 0.32 | reduced the percentage of cells in the S-phase | – | – | – | – | – | – | – | – | –
2 | OB1OCc2cc(/C=C/c3cccc(C(F)(F)F)c3)ccc21 [Compound II, (E)-5-(3-(trifluoromethyl)styryl)benzo[c][1,2]oxaborol-1(3H)-ol] | – | – | – | – | – | – | completely inhibit | 21.1 | 20.4 | superior to BF 175 | 80 | better than those of BF-175 | 0.39 | high inhibitory effect | –
3 | Oc1ccc(/C=C/c2ccc(O)cc2)cc1 [DHS, reference compound] | – | – | – | – | 8.92 | – | – | – | – | – | – | – | – | – | stabilized
4 | OB1OCc2cc(/C=C/c3cc(C(F)(F)F)cc(C(F)(F)F)c3)ccc21 [IV, (E)-5-(3,5-bis(trifluoromethyl)styryl)benzo[c][1,2]oxaborol-1(3H)-ol] | – | – | – | – | – | – | – | 57.9 | 37.6 | different degrees of inhibition | – | better than those of BF-175 | 0.42 | – | –
